Calls of active or inactive are those of the source. No cut-off for these calls is given here.
Columns and labels:
Helicobacter pylori [1] = test: Antibacterial activity against Helicobacter pylori SS1 infected in Mongolian gerbils assessed as bacterial disorientation in 15 to 25 um above the Juxtamucosal layer at 0.25 mg, ip followed by second dose administered as solvent in 24 hrs dosing interval measured after 90 mins post last dose; type: functional, organism-based
Helicobacter pylori [2] = test: Antibacterial activity against Helicobacter pylori SS1 infected in Mongolian gerbils assessed as bacterial orientation in central layer at 35 ug/ml administered as single dose in 8 hrs dosing interval; type: functional, organism-based
Helicobacter pylori [3] = test: (§1) Antibacterial activity against Helicobacter pylori SS1 infected in Mongolian gerbils assessed as bacterial disorientation in luminal mucus layer at 0.25 mg, ip administered as two doses of solvent measured after 90 mins post last dose (reference value: 4560+/-400 bacteria per nl of mucus); type: functional, organism-based
Helicobacter pylori [4] = test: (§2) Antibacterial activity against Helicobacter pylori SS1 infected in Mongolian gerbils assessed as bacterial density in mucus in 0 to 15 um above the Juxtamucosal layer at 20 uM, ip administered as single dose through dialysis measured after 90 mins post last dose (reference value: 4560+/-400 bacteria per nl of mucus); type: functional
Helicobacter pylori [5] = test: Antibacterial activity against Helicobacter pylori SS1 infected in Mongolian gerbils assessed as bacterial disorientation in luminal mucus layer at 0.25 mg, ip administered as two doses in 8 hrs dosing interval measured after 90 mins post last dose; type: functional, organism-based
Helicobacter pylori [6] = test: as §1, with “density” for “disorientation”, “mucus in central” for “luminal”, “in 24 hrs dosing interval” for “of solvent”, “90+/-60” for “4560+/-400”; type: functional
Helicobacter pylori [7] = test: as §1, with “0 to 15 um above the Juxtamucosal” for “luminal mucus”; type: functional, organism-based
Helicobacter pylori [8] = test: Antibacterial activity against Helicobacter pylori SS1 infected in Mongolian gerbils assessed as bacterial density in mucus in luminal mucus layer at 20 uM, ip administered as single dose through dialysis measured after 90 mins post last dose (reference value: 60+/-50 bacteria per nl of mucus); type: functional
Helicobacter pylori [9] = test: as §1, with “density” for “disorientation”, “mucus in central” for “luminal”, “solvent in 24 hrs dosing interval” for “solvent”, “90+/-60” for “4560+/-400”; type: functional
[10] = Cmax in Mongolian gerbils plasma; type: ADME, Meriones unguiculatus; details: gerbil
Helicobacter pylori [11] = test: (§3) Antibacterial activity against Helicobacter pylori SS1 infected in Mongolian gerbils assessed as bacterial density in mucus in luminal mucus layer at 0.25 mg, ip followed by second dose administered as solvent in 24 hrs dosing interval measured after 90 mins post last dose (reference value: 60+/-50 bacteria per nl of mucus); type: functional
Helicobacter pylori [12] = test: Antibacterial activity against Helicobacter pylori SS1 infected in Mongolian gerbils assessed as bacterial orientation in luminal mucus layer at 0.25 mg, ip administered as two subsequent doses in 8 hrs dosing interval; type: functional, organism-based
Helicobacter pylori [13] = test: Antibacterial activity against Helicobacter pylori SS1 infected in Mongolian gerbils assessed as bacterial density in mucus in 15 to 25 um above the Juxtamucosal layer at 100 uM, ip administered as single dose through dialysis measured after 90 mins post last dose; type: functional
Helicobacter pylori [14] = test: (§4) Antibacterial activity against Helicobacter pylori SS1 infected in Mongolian gerbils assessed as bacterial disorientation in 15 to 25 um above the Juxtamucosal layer at 0.25 mg, ip administered as two doses in 24 hrs dosing interval measured after 90 mins post last dose; type: functional, organism-based
Helicobacter pylori [15] = test: as §4, with “as bacterial density in mucus in 15” for “as bacterial disorientation in 15”, “last dose (reference value: 2280+/-430 bacteria per nl of mucus)” for “last dose”; type: functional
Helicobacter pylori [16] = test: as §2, with “in 15” for “in 0”, “to 25” for “to 15”, “value: 2280+/-430” for “value: 4560+/-400”; type: functional
Helicobacter pylori [17] = test: Antibacterial activity against Helicobacter pylori SS1 infected in Mongolian gerbils assessed as decrease in bacterial density in mucus in 15 to 25 um above the Juxtamucosal layer at 0.25 mg, ip administered as single dose for 5 days measured after 90 mins post last dose; type: functional; parameters: scale not given: the % may be the effect or the level left
Helicobacter pylori [18] = test: Antibacterial activity against Helicobacter pylori SS1 infected in Mongolian gerbils assessed as bacterial density in mucus in 15 to 25 um above the Juxtamucosal layer at 0.25 mg, ip administered as two doses in 8 hrs dosing interval measured after 90 mins post last dose (reference value: 2280+/-430 bacteria per nl of mucus); type: functional
Helicobacter pylori [19] = test: Antibacterial activity against Helicobacter pylori SS1 infected in Mongolian gerbils assessed as bacterial disorientation in 0 to 15 um above the Juxtamucosal layer at 0.25 mg, ip administered as two doses in 24 hrs dosing interval measured after 90 mins post last dose; type: functional, organism-based
Helicobacter pylori [20] = test: Antibacterial activity against Helicobacter pylori SS1 infected in Mongolian gerbils assessed as bacterial disorientation in central layer at 0.25 mg, ip administered as two doses of solvent measured after 90 mins post last dose (reference value: 4560+/-400 bacteria per nl of mucus); type: functional, organism-based
Helicobacter pylori [21] = test: as §3, with “0 to 15 um above the Juxtamucosal” for “luminal mucus”, “4560+/-400” for “60+/-50”; type: functional
Helicobacter pylori [22] = test: Antibacterial activity against Helicobacter pylori SS1 infected in Mongolian gerbils assessed as bacterial density in mucus in 0 to 15 um above the Juxtamucosal layer at 100 uM, ip administered as single dose through dialysis measured after 90 mins post last dose; type: functional
Helicobacter pylori [23] = test: Antibacterial activity against Helicobacter pylori SS1 infected in Mongolian gerbils assessed as bacterial density in mucus in 0 to 15 um above the Juxtamucosal layer at 0.25 mg, ip administered as two doses of solvent in 24 hrs dosing interval measured after 90 mins post last dose (reference value: 4560+/-400 bacteria per nl of mucus); type: functional
Helicobacter pylori [24] = test: Antibacterial activity against Helicobacter pylori SS1 infected in Mongolian gerbils assessed as bacterial orientation in central layer at 0.25 mg, ip administered as two subsequent doses in 8 hrs dosing interval; type: functional, organism-based
Helicobacter pylori [25] = test: Antibacterial activity against Helicobacter pylori SS1 infected in Mongolian gerbils assessed as bacterial orientation in luminal mucus layer at 35 ug/ml administered as single dose in 8 hrs dosing interval; type: functional, organism-based
Helicobacter pylori [26] = test: Antibacterial activity against Helicobacter pylori SS1 infected in Mongolian gerbils assessed as decrease in bacterial density in mucus in 0 to 15 um above the Juxtamucosal layer at 0.25 mg, ip administered as single dose for 5 days measured after 90 mins post last dose; type: functional; parameters: scale not given: the % may be the effect or the level left
Helicobacter pylori [27] = test: Antibacterial activity against Helicobacter pylori SS1 infected in Mongolian gerbils assessed as bacterial orientation in 0 to 15 um above the Juxtamucosal layer at 0.25 mg, ip administered as two subsequent doses in 8 hrs dosing interval; type: functional, organism-based
Helicobacter pylori [28] = test: Antibacterial activity against Helicobacter pylori SS1 infected in Mongolian gerbils assessed as bacterial density in mucus in central mucus layer at 100 uM, ip administered as single dose through dialysis measured after 90 mins post last dose; type: functional

- Cmax [10]: 10 µM
Compound: COc1ccc2[nH]c([S+]([O-])Cc3ncc(C)c(OC)c3C)nc2c1 (stereo not drawn) [OMEPRAZOLE]
- Activity (Helicobacter pylori [1]): inactive
- Activity (Helicobacter pylori [2]): inactive
- Activity (Helicobacter pylori [3]): inactive
- Activity (Helicobacter pylori [4]): 5050 nL⁻¹
- Activity (Helicobacter pylori [5]): inactive
- Activity (Helicobacter pylori [6]): 300 nL⁻¹
- Activity (Helicobacter pylori [7]): Active
- Activity (Helicobacter pylori [8]): 50 nL⁻¹
- Activity (Helicobacter pylori [9]): 40 nL⁻¹
- Activity (Helicobacter pylori [11]): 50 nL⁻¹
- Activity (Helicobacter pylori [12]): inactive
- Activity (Helicobacter pylori [13]): 330 nL⁻¹
- Activity (Helicobacter pylori [14]): Active
- Activity (Helicobacter pylori [15]): 2230 nL⁻¹
- Activity (Helicobacter pylori [16]): 2010 nL⁻¹
- Activity (Helicobacter pylori [17]): 5%
- Activity (Helicobacter pylori [18]): 1800 nL⁻¹
- Activity (Helicobacter pylori [19]): Active
- Activity (Helicobacter pylori [20]): inactive
- Activity (Helicobacter pylori [21]): 4790 nL⁻¹
- Activity (Helicobacter pylori [22]): 570 nL⁻¹
- Activity (Helicobacter pylori [23]): 5740 nL⁻¹
- Activity (Helicobacter pylori [24]): inactive
- Activity (Helicobacter pylori [25]): inactive
- Activity (Helicobacter pylori [26]): 5%
- Activity (Helicobacter pylori [27]): inactive
- Activity (Helicobacter pylori [28]): 60 nL⁻¹

From ChEMBL document CHEMBL1649554, “Specific therapeutic schemes of omeprazole affect the orientation of Helicobacter pylori” (Antimicrob Agents Chemother, 2009)
